Assay [1] has as its system caveolin-1 (Tyr 14 phosphorylation). The assay can be described thus: Immunoblot of p-caveolin-1 in human astroglioma cells and HUVECs. The format is cell-based. To be noted: for suppression of H2O2-induced caveolin-1 phosphorylation: pretreated 30 min, then 5 mM H2O2 for 10 min, percentage of H2O2-treated values, three independent experiments. The text has this: HUVECs were utilized as a positive control. Data are representative of at least three experiments. […] Data are representative of three independent experiments.

Assay [2] concerns caveolin-1/CSK complex. The assay is described as follows: Co-immunoprecipitation of caveolin-1 and CSK. To be noted: CRT-MG cells; H2O2 10 min; IP anti-caveolin-1. Format: cell-based, human. As for the experimental part: cDNA encoding full-length human caveolin-1 was obtained from Thermo Scientific (Waltham, MA, USA). The Y14A caveolin-1 mutant was generated using a QuickChange site-directed mutagenesis kit (Stratagene, Santa Clara, CA, USA) using PCR. pCMV-SPORT6-caveolin-1 cDNA (25 ng) was used as a template and added to dNTP mix, Pfu buffer, Pfu turbo DNA polymerase and 125 ng of each of the mutagenic primers: sense, 5′-[…]-3′ and antisense, 5′-[…]-3′. Samples were then incubated at 95°C for 1 min, then for 20 cycles of 95°C for 1 min, 65°C for 4 min, and 68°C for 12 min. The methylated parental DNA template in the PCR product was digested using the DpnI (10 U) restriction enzyme for 3 h at 37°C. […] After mutagenesis, 1 µg of caveolin-1 wild-type (WT) or Y14A mutant DNA was transfected into HEK 293T cells using VIVAMAGIC transfection reagent (VIVAGEN, Seongnam, Korea) containing 10% FBS according to the manufacturer’s instructions for 24 h before treatment with 5 mM H2O2 for 10 min; the cells were then analyzed by immunoblotting.
Cells were plated and transfected with green fluorescence protein (GFP) siRNA (Samchully Pharm Co. Ltd., Seoul, Korea) as a control group and human CSK siRNA and human SHP-2 siRNA from Bioneer (Daejeon, Korea) using Lipofectamine RNAiMAX (Invitrogen, Carlsbad, CA, USA) according to the manufacturer’s instructions to achieve a final concentration of 300 nM. […]

Assay [3] concerns ERK phosphorylation. The assay is described as follows: Immunoblot of p-ERK. The format is cell-based, human. To be noted: CRT-MG cells; 5 mM H2O2, 10 min. As for the experimental part:
Cells were plated and transfected with green fluorescence protein (GFP) siRNA (Samchully Pharm Co. Ltd., Seoul, Korea) as a control group and human CSK siRNA and human SHP-2 siRNA from Bioneer (Daejeon, Korea) using Lipofectamine RNAiMAX (Invitrogen, Carlsbad, CA, USA) according to the manufacturer’s instructions to achieve a final concentration of 300 nM.
(§1) Figure 7 SHP-2 and CSK reciprocally regulate H2O2-induced Src activation. […] Tubulin was evaluated as a loading control. Bottom panel, Densitometric quantification of p-Src Y419 levels (empty bars) and p-Src Y530 levels (filled bars), normalized to the level of total Src. Results are expressed as percentage of H2O2-treated values in control siRNA presented as mean ± SD. (*p<0.05 vs. H2O2-treated cells transfected with control siRNA; #p<0.05 between SHP-2 siRNA-transfected cells and CSK siRNA-transfected cells; n = 3). (B) Inhibition of SHP-2 by PTPi IV attenuated the H2O2-induced activation of the Src signaling pathway. CRT-MG cells were treated with 5 mM H2O2 or not for 10 min in the presence of 5 or 10 µM PTPi IV for 30 min, and lysed in cold-RIPA buffer. Antibodies against p-SHP-2, SHP-2, p-Src, Src, p-FAK, FAK, p-ERK, ERK, and tubulin were used for immunoblotting. Bottom panel, Densitometric quantification of p-Src Y419 levels (empty bars) and p-Src Y530 levels (filled bars), normalized to the level of total Src. […] (p, phospho).
(In general: Immunoblotting shows a protein as a band on a membrane.)

Assay [4] deals with FAK phosphorylation. The assay is described as follows: Immunoblot of p-FAK. Format: cell-based, human. To be noted: CRT-MG cells; 5 mM H2O2, 10 min. On the procedure: as §1
In assay [5] the test system is caveolin-1 (Tyr 14 phosphorylation). To be noted: rat primary astrocytes; 1 mM H2O2, 10 min; immunoblot.
The test system of assay [6] is caveolin-1/SHP-2 complex. The settings on record: CRT-MG cells; 5 mM H2O2, 10 min; PLA red dots; repeated 4 times.
The subject of assay [7] is caveolin-1 (Tyr 14 phosphorylation). To be noted: bovine pulmonary artery endothelial cells and placenta artery endothelial cells; ref [28]–[30]; cited from earlier work.
Assay [8] concerns the target T1, recombinant GST-SHP-2 (Homo sapiens, UniProt Q06124).
T1 construct: purchased Abnova (Taipei, Taiwan)
T1 sequence (Q06124 1-593): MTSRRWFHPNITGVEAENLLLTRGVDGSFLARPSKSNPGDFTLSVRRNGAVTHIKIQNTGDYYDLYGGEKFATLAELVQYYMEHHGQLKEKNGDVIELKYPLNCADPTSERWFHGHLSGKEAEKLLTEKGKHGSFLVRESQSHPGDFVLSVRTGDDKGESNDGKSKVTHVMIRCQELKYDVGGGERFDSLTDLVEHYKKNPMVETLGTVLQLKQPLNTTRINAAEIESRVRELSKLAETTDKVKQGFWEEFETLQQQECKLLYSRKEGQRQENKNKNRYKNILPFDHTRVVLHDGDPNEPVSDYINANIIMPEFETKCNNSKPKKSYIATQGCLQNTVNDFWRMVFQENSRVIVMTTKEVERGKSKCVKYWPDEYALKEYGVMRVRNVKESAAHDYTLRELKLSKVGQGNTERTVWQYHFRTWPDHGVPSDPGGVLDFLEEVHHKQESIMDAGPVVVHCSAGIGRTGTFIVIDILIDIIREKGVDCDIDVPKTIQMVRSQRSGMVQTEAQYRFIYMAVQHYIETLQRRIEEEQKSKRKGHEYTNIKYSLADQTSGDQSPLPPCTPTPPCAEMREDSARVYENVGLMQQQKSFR
The assay is described as follows: PepSPOTs assay, rGST-SHP-2. The format is binding. The settings on record: 13-mer peptides of caveolin-1 (1–85) with phosphorylated Tyr 6, 14, 25, 42 on cellulose membrane; 1 µg rGST-SHP-2, overnight; repeated 3 times. On the procedure:
(§2) Identification of binding sites for recombinant SHP-2 and CSK in the caveolin-1 protein was performed using PepSPOTs (JPT Peptide Technologies GmbH, Berlin, Germany). Synthetic peptide sequences of caveolin-1 (1–85 and 1–28) were used in this study. The peptide library contained either 13-mer peptides that overlapped by 5 residues or 13-mer peptides that overlapped by 8 residues. Each spot carried approximately 5 nmol of peptide covalently bound to the cellulose-betaalanine-membrane (N-terminus: acetyl). Two identical membranes were incubated overnight with either recombinant GST-SHP-2 (rGST-SHP-2) or GST-CSK (rGST-CSK) respectively, and immunoblotting was performed to detect rGST-SHP-2/caveolin-1 peptide and rGST-CSK/caveolin-1 peptide interactions.
(§3) Figure 4 Both SHP-2 and CSK bind specifically to phosphorylated caveolin-1 at Tyr 14. (A) Schematic diagram of caveolin-1. (B) A peptide array assay was performed to identify the binding site for recombinant SHP-2 and CSK in the caveolin-1 protein. Schematic diagram of the synthetic peptide sequences of caveolin-1 (1–85) spotted on the membrane used for study is shown in the left panel. The peptide numbering starts with 1 in the left corner and the phosphorylated tyrosine residues are indicated in bold. […]

The subject of assay [9] is recombinant GST-CSK. The assay can be described thus: PepSPOTs assay, rGST-CSK. The settings on record: 13-mer peptides of caveolin-1 (1–85) with phosphorylated Tyr 6, 14, 25, 42 on cellulose membrane; 1 µg rGST-CSK, overnight; repeated 3 times. The format is binding. As for the experimental part:
as §2, §3

Entries after “also recorded” stand apart in the source; their conditions may differ. Like-named read-outs stand apart in the source and are kept apart here. Square brackets hold non-standard residues; d marks the D form. Ends that are not written are not given here. pY = N[C@@H](Cc1ccc(OP(=O)(O)O)cc1)C(=O)O

The source of these data is publication PMC3954793, “SHP-2 Binds to Caveolin-1 and Regulates Src Activity via Competitive Inhibition of CSK in Response to H2O2 in Astrocytes” (PLoS ONE, 2014).

With `OO` [H2O2, hydrogen peroxide], the “level of Tyr-phosphorylated caveolin-1, dose dependence” value in assay [1] (CRT-MG cells, H2O2 0–5 mM, 10 min, normalized to tubulin, mean ± SD from three experiments) is listed as “dose-dependent increase in the level of Tyr-phosphorylated caveolin-1 up to a concentration of 5 mM”. For the same molecule, the “phosphorylation of caveolin-1 at Tyr 14” value in assay [1] (HUVECs (positive control), 1 mM H2O2, 10 min, immunoblot) is reported as “induced the phosphorylation of caveolin-1”; in assay [5] it was “induced the phosphorylation of caveolin-1; also recorded: strongly induced phosphorylation of caveolin-1 at Tyr 14”; in assay [7] it was “induces the phosphorylation of caveolin-1 at Tyr 14”. Further, in [2], the “complex formation between caveolin-1 and CSK” value was “complex formation occurred between caveolin-1 and CSK”. For the same molecule, the “phosphorylation of ERK 1/2, H2O2-induced” value in [3] is “leads to phosphorylation of ERK 1/2 and FAK”. The “phosphorylation of FAK, H2O2-induced” value in assay [4] is “leads to phosphorylation of ERK 1/2 and FAK”. For the same molecule, the “direct interaction between SHP-2 and caveolin-1” value in assay [6] is “a direct interaction between SHP-2 and caveolin-1 (indicated by red dots) occurred”.

For `CC(=O)N[C@@H](CS)C(=O)O` [NAC, N-acetyl-L-cysteine], the “suppression of H2O2-induced caveolin-1 phosphorylation” value in [1] (CRT-MG cells) is on record as “considerably suppressed H2O2-induced caveolin-1 phosphorylation in a dose-dependent manner; also recorded: modest compared to catalase”.

For catalase, the “suppression of H2O2-induced caveolin-1 phosphorylation” value in [1] (CRT-MG cells) is “considerably suppressed H2O2-induced caveolin-1 phosphorylation in a dose-dependent manner; also recorded: completely abrogates H2O2-induced caveolin-1 phosphorylation”.

For “spot 2: residues 9–21 of caveolin-1 (spot 2), which included Tyr 14 (Ac-SEGHL[pY]TVPIREQ)”, the “binding of rGST-SHP-2 to caveolin-1 peptide spots” value in assay [8] is on record as “only 1 spot of bound recombinant SHP-2 was detected”. In [9], the “binding of rGST-CSK to caveolin-1 peptide spots” value was “strong binding”.
